Key:
[1] = system: human colon cancer HTC-116 cells; assay: Cell proliferation assay (calcein-AM) in human colon cancer HTC-116 cells; type: cell-based; settings: for Decrease in cell proliferation greater the higher the concentration of Injectin in the siRNA:Injectin complexes: Injectin 0.037% to 0.15%; for cell proliferation / proliferation: treatment 6 h; for proliferation: at 72 h, 0.17% Lipofectamine 2000 or 0.1% Injectin, FIGS. 19B and 20B
Method: SK-HEP-1, T24, HT-1080 and HCT-116 cell lines were maintained in a humidified atmosphere of 5% CO2 at 37° C. SK-HEP-1 cells were grown in RPMI-1640 (Sigma, St. Louis, Mo.) supplemented with 20% fetal bovine serum (FBS) (Gibco, UK), 100 U/mL penicillin G, 0.25 μg/mL amphotericin B, 100 μg/mL streptomycin (Gibco, UK), 25 mM sodium bicarbonate (Merck, Germany) and 25 mM N-2-hydroxyethylpiperazine-N′-2-ethanosulfonic acid (HEPES) (Sigma, St. Louis, Mo.). T24 and HT-1080 cells were grown, respectively, in Dulbecco's Modified Eagle's Medium (DMEM)—high glucose (Sigma, St. Louis, Mo.) and DMEM—low glucose (Sigma, St. Louis, Mo.), supplemented with 10% FBS (Gibco, UK), 100 U/mL penicillin G, 0.25 μg/mL amphotericin B, 100 μg/mL streptomycin (Gibco, UK), 25 mM sodium bicarbonate (Merck, Germany) and 25 mM HEPES (Sigma, St. Louis, Mo.). HCT-116 cells were grown in McCoy's 5A (Sigma, St. Louis, Mo.) supplemented with 10% FBS (Gibco, UK), 100 U/mL penicillin G, 0.25 μg/mL amphotericin B, 100 μg/mL streptomycin (Gibco, UK), 25 mM sodium bicarbonate (Merck, Germany) and 25 mM HEPES (Sigma, St. Louis, Mo.). For all cell lines the medium was changed every 2 days, and cells reached confluence 3-4 days after initial seeding. For subculturing, cells were dissociated with 0.25% trypsin-ethylenediaminetetraacetic acid (EDTA) (Sigma, St. Louis, Mo.), split 1:15 or 1:20 and subcultured in a 21-cm^2 growth area (Sarstedt, Germany).
Cell proliferation was measured using calcein-AM (Thermo Fisher Scientific, USA). The membrane permeant calcein-AM, a nonfluorescent dye, is taken up and converted by intracellular esterases to membrane impermeant calcein, which emits green fluorescence. Cells were plated in 96-well plates with black walls clear bottom (BD Biosciences, USA) and incubated 24 h under normal growth conditions. Cells were incubated with test items at 37° C., 5% C02. After the incubation period, serum and antibiotic was restored and cells were further incubated at normal conditions during 72 h. After treatment with test substances or vehicle, cells were washed twice with Hanks' medium and loaded with 2 μM calcein-AM in Hanks' medium, at 37° C. for 30 min. Fluorescence was measured at 485 nm excitation and 530 nm emission wavelengths in a microplate spectrofluorometer (Gemini EM, Molecular Devices). Nine consecutive fluorescence measurements are performed per well, to allow fluorescence readings in the whole area of the well, which was then considered for the calculation of mean fluorescence per well. To determine minimum staining for calcein (calceinmin), eight wells were treated with ethanol 30 min before calcein-AM addition. The percent cell number is calculated as [(calceinsample)/(calceincontrol)]×100.

[2] = system: human colon cancer HTC-116 cells xenograft tumour; assay: Xenograft tumour model, relative tumour volume, intratumoral injections; type: in vivo, NMRI nu/nu mice; settings: immune deficient mice, subcutaneous HTC-116; 10 μg intratumoral (50 μL) every other day; versus vehicle (Injectin); FIG. 23
Method: Human colon cancer HTC-116 cells grown in tissue culture and 10^7 cells per mouse were injected into the hind flank of female NMRI nu/nu mice. Once tumours have developed and tumour volumes reached randomisation criteria, therapy will commence by every other day […], intra-tumoral injections. A vehicle treated group was included in the study as control. Female immunodeficient NMRI nu/nu mice from Charles River were used. The animals were delivered at the age of 4-6 weeks and are used for implantation after at least 1 week of quarantine. […] During the experiments, animals were monitored at least daily. […]
The tumour volume was determined by a two-dimensional measurement with callipers on the day of randomization (Day 0) and then twice weekly. Tumour volumes were calculated according to the following equation: Tumour Vol [mm^3]=a [mm]×b^2 [mm^2]×0.5 […]
The relative volume of an individual tumour on day X (RTVx) was calculated by dividing the absolute volume [mm^3] of the respective tumour on day X (Tx) by the absolute volume of the same tumour on the day of randomization, i. e. on day 0 (T0), multiplied by 100, as shown by the following equation: […]
Group median and range (alternatively geometric mean+/−SEM) of RTVs were calculated, considering only the tumours of animals that were alive on the day in question (for median). […]

[3] = 72 h exposure, 0.1% Injectin, FIG. 14
[4] = 72 h exposure, increasing Injectin (0.037% to 0.15%), FIG. 15

| Substance | Enhancement of effects of 5-fluoruracil compared with SEQ ID NO: 267/397/398 ([1]; 5-FU 10 μM, 72 h, FIG. 17B) | Decrease in cell proliferation greater the higher the concentration of Injectin in the siRNA:Injectin complexes ([1]; 72 h, FIG. 15) | Effect of siRNA-LAT1 SEQ ID NO: 58/387/388 upon proliferation in combination with the siRNA-ASCT2 ([1]; 72 h, siRNA-ASCT2 at non-efficacious conditions (0.037% Injectin), FIG. 18) | cell proliferation [1, 3] | cell proliferation [1, 4] | proliferation [1] | reduction in relative tumour volume [2] | proliferation (siRNA-LAT1 alone) ([1]; 25 nM, 72 h exposure, Injectin, FIG. 18A) | Effect of 5-fluoruracil upon proliferation in combination with the siRNA ([1]; 5-FU 10 μM, siRNA 25 nM, 72 h, 0.037% Injectin, FIG. 17A) | Effect of 5-fluoruracil upon proliferation in combination with the siRNA ([1]; 5-FU 3 and 10 μM, siRNA 5 and 25 nM, concentration dependent, 72 h, 0.25% Lipofectamine 2000, FIG. 16) | Effect of cisplatin upon proliferation in combination with the siRNA ([1]; Cisp 3 and 10 μM, siRNA 5 and 25 nM, concentration dependent, 72 h, 0.25% Lipofectamine 2000, FIG. 16) | Effect of oxaliplatin upon proliferation in combination with the siRNA ([1]; Oxa 1 and 3 μM, siRNA 5 and 25 nM, concentration dependent, 72 h, 0.25% Lipofectamine 2000, FIG. 16) |
| --- | --- | --- | --- | --- | --- | --- | --- | --- | --- | --- | --- | --- |
| 278/403/404 (sense UGCCACGGUCGCCUCUGAGAATT; antisense UUCUCAGAGGCGACCGUGGCATT; siRNA; sugars by position and backbone not given here; further chemistry not fully specified) | more marked | particularly evident | enhanced | decreased | decreased | significantly decreased | statistically significant |  |  |  |  |  |
| 58/387/388 (sense CUUCGCCACCUACCUGCUCAATT; antisense UUGAGCAGGUAGGUGGCGAAGTT; siRNA; sugars by position and backbone not given here; further chemistry not fully specified) |  | particularly evident |  | decreased | decreased | significantly decreased | statistically significant | significant decrease | enhanced | significantly enhanced | significantly enhanced | significantly enhanced |

Reference: patent publication US10590422B2, “Anticancer therapeutic intervention” (PHYZAT BIOPHARMACEUTICALS, LDA., priority 2017, dated 2020)
